One test deals with T1, RARα (Homo sapiens, UniProt P10276).
T1 sequence (P10276 1-462): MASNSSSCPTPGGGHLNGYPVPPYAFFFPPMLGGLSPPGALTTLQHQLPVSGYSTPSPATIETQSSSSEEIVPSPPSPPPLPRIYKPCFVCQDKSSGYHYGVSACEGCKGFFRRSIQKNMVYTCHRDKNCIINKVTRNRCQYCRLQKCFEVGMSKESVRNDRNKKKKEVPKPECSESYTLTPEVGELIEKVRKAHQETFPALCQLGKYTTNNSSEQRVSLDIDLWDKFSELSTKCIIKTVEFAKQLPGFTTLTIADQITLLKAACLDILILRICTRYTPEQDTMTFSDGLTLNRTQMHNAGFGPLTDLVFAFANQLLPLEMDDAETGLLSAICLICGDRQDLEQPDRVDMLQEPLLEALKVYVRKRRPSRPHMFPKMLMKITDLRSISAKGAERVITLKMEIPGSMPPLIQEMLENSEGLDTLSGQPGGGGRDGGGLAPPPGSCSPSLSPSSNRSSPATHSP
Put plainly: Ligand binding assay. The conditions noted are these: read-out: Kd (nanomolar) RARα. On the set-up: expressed in transfected cells; host or cells: CV1 cells. The source says:
A holoreceptor transactivation assay and a ligand binding assay which measure the antagonist/agonist like activity of the compounds of the invention, or their ability to bind to the several retinoid receptor subtypes, respectively, are described in published PCT Application No. WO93/11755 (particularly on pages 30-33 and 37-41) published on Jun. 24, 1993, the specification of which is also incorporated herein by reference. A description of the holoreceptor transactivation assay is also provided below.
CV1 cells (5,000 cells/well) were transfected with an RAR reporter plasmid MTV-TREp-LUC (50 ng) along with one of the RAR expression vectors (10 ng) in an automated 96-well format by the calcium phosphate procedure of Heyman et al. Cell 68: 397-406. For RXR-α and RXR-γ transactivation assays, an RXR-responsive reporter plasmid CRBPII-tk-LUC (50 ng) along with the appropriate RXR expression vectors (10 ng) was used substantially as described by Heyman et al. above, and Allegretto et al. J. Biol. Chem. 268: 26625-26633. For RXR-β transactivation assays, an RXR-responsive reporter plasmid CPRE-tk-LUC ([…]) along with RXR-β expression vector ([…]) was used as described in above. These reporters contain DRI elements from human CRBPII and certain DRI elements from promotor, respectively (see Mangelsdorf et al. The Retinoids: Biology Chemistry and Medicine, pp. 319-349, Raven Press Ltd., New York and Heyman et al., cited above). A β-galactosidase (50 ng) expression vector was used as an internal control in the transfections to normalize for variations in transfection efficiency. The cells were transfected in triplicate for 6 hours, followed by incubation with retinoids for 36 hours, and the extracts were assayed for luciferase and […] activities. The detailed experimental procedure for holoreceptor transactivations has been described in Heyman et al. above, and Allegretto et al. cited above. The results obtained in this assay are expressed in EC50 numbers, as they are also in the chimeric receptor transactivation assay. The Heyman et al. Cell 68: 397-406, Allegretto et al. J. Biol. Chem. 268: 26625-26633, and Mangelsdorf et al. The Retinoids: Biology, Chemistry, and Medicine, pp. 319-349, Raven Press Ltd., New York, are expressly incorporated herein by reference. The results of ligand binding assay are expressed in Kd numbers. (See Cheng et al. Biochemical Pharmacology 22: 3099-3108, expressly incorporated herein by reference.) […]

Another test relates to RAR-γ-VP-16. Kind of test: Example 12: assay for retinoid negative hormones, CV-1 cells. In kind it is cell-based. The conditions noted are these: 10^−9 to 10^−6 M, 18 hours, no agonist.
The target of a further test is T2, RARγ (Homo sapiens, UniProt P13631).
T2 sequence (P13631 1-454): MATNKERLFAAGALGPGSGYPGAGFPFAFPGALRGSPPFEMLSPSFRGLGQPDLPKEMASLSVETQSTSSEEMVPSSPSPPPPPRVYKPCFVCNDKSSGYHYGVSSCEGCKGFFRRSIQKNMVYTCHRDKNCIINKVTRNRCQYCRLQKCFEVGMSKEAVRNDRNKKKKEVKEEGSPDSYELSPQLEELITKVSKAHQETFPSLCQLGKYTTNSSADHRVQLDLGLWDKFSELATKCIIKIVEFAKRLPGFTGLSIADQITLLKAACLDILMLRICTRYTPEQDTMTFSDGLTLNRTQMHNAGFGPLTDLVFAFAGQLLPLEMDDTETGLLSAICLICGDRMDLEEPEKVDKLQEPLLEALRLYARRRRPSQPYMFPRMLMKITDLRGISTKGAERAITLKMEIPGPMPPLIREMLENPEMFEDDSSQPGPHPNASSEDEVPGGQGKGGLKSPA
Put plainly: [3H]-ATRA displacement assay, baculovirus expressed receptor. The format is binding. Also on record: made in house; host or cells: baculovirus expression system. As to conditions: Table 12; relative affinity, competition of 3H-ATRA binding, Cheng-Prussof equation.

Structures are written as SMILES.

The term Kd denotes the free concentration of one partner at which half of the binding sites on the other are occupied at equilibrium, for simple one-to-one binding. For `CC(C)(C)c1ccc(C2=CCC(C)(C)c3ccc(C#Cc4ccc(C(=O)O)cc4)cc32)cc1` [Compound 61, 4-[(5,6-Dihydro-5,5-dimethyl-8-(4-(1,1-dimethylethyl)phenyl)-2-naphthalenyl)ethynyl]benzoic acid], the Kd on RARα was found to be 96 nM.

`CC1(C)CC=C(c2ccccn2)c2cc(C#Cc3ccc(C(=O)O)cc3)ccc21` [Compound 19, 4-[(5,6-Dihydro-5,5-dimethyl-8-(2-pyridyl)-2-naphthalenyl)ethynyl]benzoic acid]: on RARα, the Kd is 565 nM. As for `Cc1cccc(C2=CCC(C)(C)c3ccc(C#Cc4ccc(C(=O)O)cc4)cc32)c1` [Compound 20, 4-[(5,6-Dihydro-5,5-dimethyl-8-(3-methylphenyl)-2-naphthalenyl)ethynyl]benzoic acid], the Kd at RARα came out at 130 nM. Same read-out and setting: the same measure for `Cc1ccc(C2=CCC(C)(C)c3cc(C(=O)C=Cc4ccc(C(=O)O)cc4)ccc32)cc1` [Compound 101, 4-[3-oxo-3-(7,8-dihydro-5-(4-methylphenyl)-8,8-dimethyl-2-naphthalenyl)-1-propenyl]-benzoic acid]: 750 nM.

Take `CC1(C)CC=C(c2ccc(Cl)cc2)c2cc(C#Cc3ccc(C(=O)O)cc3)ccc21` [Compound 25, 4-[(5,6-Dihydro-5,5-dimethyl-8-(4-chlorophenyl)-2-naphthalenyl)ethynyl]benzoic acid]: the “RAR-γ-VP-16 constitutive activity (negative hormone activity)” value in the test on RAR-γ-VP-16 is “dose dependent repression of RAR-γ-VP-16 constitutive activity”. For the same compound, the Kd at RARγ turned out to be 13 nM; on RARα it was 50 nM. On to `CC1(C)CC=C(c2ccc(O)cc2)c2cc(C#Cc3ccc(C(=O)O)cc3)ccc21` [Compound 29, 4-[(5,6-Dihydro-5,5-dimethyl-8-(4-hydroxyphenyl)-2-naphthalenyl)ethynyl]benzoic acid], for which, at RARα, the Kd was determined as 234 nM.

As for `CCc1ccc(C2=CCC(C)(C)c3ccc(C#Cc4ccc(C(=O)O)cc4)cc32)cc1` [Compound 21, 4-[(5,6-Dihydro-5,5-dimethyl-8-(4-ethylphenyl)-2-naphthalenyl)ethynyl]benzoic acid], the Kd at RARα was determined as 16 nM. On to `Cc1ccc(C2=CCC(C)(C)c3ccc(C#Cc4ccc(C(=O)O)cc4)cc32)cn1` [Compound 18, 4-[(5,6-Dihydro-5,5-dimethyl-8-(2-methyl-5-pyridyl)-2-naphthalenyl)ethynyl]benzoic acid], for which the Kd on RARα amounted to 24 nM. For `Cc1ccc(C2=CCC(C)(C)c3ccc(/C=C/c4ccc(C(=O)O)cc4)cc32)cc1` [Compound 45], the Kd on RARα turned out to be 12 nM. Take `COc1ccc(C2=CCC(C)(C)c3ccc(C#Cc4ccc(C(=O)O)cc4)cc32)cc1` [Compound 22, 4-[(5,6-Dihydro-5,5-dimethyl-8-(4-methoxyphenyl)-2-naphthalenyl)ethynyl]benzoic acid]: at RARα, the Kd came to 24 nM. For the compound `CC(/C=C/C=C(\C)c1ccc2c(c1)C(c1ccc(C)cc1)=CCC2(C)C)=C\C(=O)O` [Compound 52, (E,E,E)-3-methyl-7-(5,6-dihydro-5,5-dimethyl-8-(4-methylphenyl)-2-naphthalenyl)-2,4,6-octatrienoic acid], the Kd at RARα is 60 nM. The same measure, in the same setting: the same measure for `Cc1ccc(C2=CCC(C)(C)c3ccc(C(=O)Nc4ccc(C(=O)O)cc4)cc32)cc1` [Compound 36, 4-[[(5,6-Dihydro-5,5-dimethyl-8-(4-methylphenyl)-2-naphthalenyl)carbonyl]amino]-benzoic acid]: 13 nM; for `CC1(C)CC=C(c2cccc(O)c2)c2cc(C#Cc3ccc(C(=O)O)cc3)ccc21` [Compound 28, 4-[(5,6-Dihydro5,5-dimethyl-8-(3-hydroxyphenyl)-2-naphthalenyl)ethynyl]benzoic acid]: 669 nM. Regarding `Cc1cnc(C2=CCC(C)(C)c3ccc(C#Cc4ccc(C(=O)O)cc4)cc32)s1` [Compound 30, 4-[(5,6-Dihydro-5,5-dimethyl-8-(5-methylthiazol-2-yl)-2-naphthalenyl)ethynyl]benzoic acid], on RARα, the Kd stood at 683 nM. Consider `Cc1ccc(C2=CCC(C)(C)c3ccc(N=Nc4ccc(C(=O)O)cc4)cc32)cc1` [Compound 46b, 4-[(5,6-dihydro-5,5-dimethyl-8-(4-methylphenyl)-2-naphthalenyl)azo]-benzoic acid], for which the Kd at RARα was determined as 250 nM. Still for that read-out and setting: the same measure for `CC1(C)CC=C(c2cccnc2)c2cc(C#Cc3ccc(C(=O)O)cc3)ccc21` [Compound 26, 4-[(5,6-Dihydro-5,5-dimethyl-8-(3-pyridyl)-2-naphthalenyl)ethynyl]benzoic acid]: 40 nM; for `Cc1ccc(C2=CCC(C)(C)c3ccc(C(=O)Oc4ccc(C(=O)O)cc4)cc32)cc1` [Compound 39, 4-[[(5,6-Dihydro-5,5-dimethyl-8-(4-methylphenyl)-2-naphthalenyl)carbonyl]oxy]-benzoic acid]: 67 nM. For the compound `Cc1ccc(C2=CCC(C)(C)c3ccc(C(=O)Nc4ccc(C(=O)O)c(F)c4)cc32)cc1` [Compound 41, 2-Fluoro-4-[[(5,6-dihydro-5,5-dimethyl-8-(4methylphenyl)-2-naphthalenyl)carbonyl]amino]-benzoic acid], at RARα, the Kd was 5.1 nM. On the same count and under the same terms, the same measure for `Cc1cc(C)cc(C2=CCC(C)(C)c3ccc(C#Cc4ccc(C(=O)O)cc4)cc32)c1` [Compound 24, 4-[(5 6-Dihydro-5,5-dimethyl-8-(3,5-dimethylphenyl)-2-naphthalenyl)ethynyl]benzoic acid]: 699 nM; for `Cc1csc(C2=CCC(C)(C)c3ccc(C#Cc4ccc(C(=O)O)cc4)cc32)n1` [Compound 31, 4-[(5,6-Dihydro-5,5-dimethyl-8-(4-methylthiazol-2-yl)-2-naphthalenyl)ethynyl]benzoic acid]: 370 nM; for `Cc1ccc(C2=CCC(C)(C)c3ccc(C(=S)Nc4ccc(C(=O)O)c(F)c4)cc32)cc1` [Compound 63, 2-fluoro-4-[[(5,6-dihydro-5,5-dimethyl-8-(4-methylphenyl)-2-naphthalenyl)thiocarbonyl]amino]-benzoic acid]: 133 nM. In the case of `CC1(C)CC=C(c2ccccc2)c2ccc(C(=O)C=Cc3ccc(C(=O)O)cc3)cc21` [Compound 103, 4-[3-oxo-3-(7,8-dihydro-5-phenyl-8,8-dimethyl-2-naphthalenyl)-1-propenyl]-benzoic acid], the Kd on RARα came out at 301 nM. For `Cc1ccc(C2=CCC(C)(C)c3ccc(C#Cc4ccc(C(=O)O)cc4)cc32)s1` [Compound 34, 4-[(5,6-Dihydro-5,5-dimethyl-8-(5-methyl-2-thienyl)-2-naphthalenyl)ethynyl]benzoic acid], the Kd at RARα amounted to 52 nM. For the compound `Cc1ccccc1C1=CCC(C)(C)c2ccc(C#Cc3ccc(C(=O)O)cc3)cc21` [Compound 27, 4-[(5,6-Dihydro-5,5-dimethyl-8-(2-methylphenyl)-2-naphthalenyl)ethynyl]benzoic acid], the Kd on RARα worked out at 69 nM.

Values taken from patent US6469028B1, “Synthesis and use of retinoid compounds having negative hormone and/or anatgonist activities” (Allergan, Inc., priority 1995, dated 2002).
